Laboratory results published in ChEMBL document CHEMBL1201862, “PubChem BioAssay data set” (2004).
Active and inactive are the calls of the source.

Legend:
HEK293 [1] = assay: NOD1 signaling inhibitors, primary screen, cell-based, luminescence, uHTS (AID 1578); assay type: functional; conditions: Homo sapiens
[2] = LGR2 antagonists, dose response, cell-based, HEK293, CRE-luciferase reporter, cherry pick, set 2 (AID 743343); assay type: functional;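 further: transfected cells were stimulated with diluted bursicon conditioned medium after compound addition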
HEK293 [3] = assay: cells; assay type: functional, cell-based; conditions: Homo sapiens
[4] = control 3'UTR Renilla luciferase suppression, dose response, counter-screen for Shn3 inhibitor project, cell-based, Clone20-Shn3RL, cherry-picked (AID 624133); assay type: functional
HEK293 [5] = assay: NOD2 signaling inhibitors in MDP-stimulated cells, cell-based, uHTS, luminescence (AID 2001); assay type: functional; conditions: Homo sapiens
[6] = target: Neurotensin receptor type 1 (Homo sapiens, UniProt P30989); assay type: functional;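 further: Image-based confirmatory dose-response assay measuring agonist activity at NTR1; NTR1-expressing U2OS osteosarcoma cells imaged for beta-arrestin GFP spot formation; agonist potency where compounds increase beta-arrestin recruitment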
[7] = target: 1-phosphatidylinositol 4,5-bisphosphate phosphodiesterase gamma-1 (Homo sapiens, UniProt P19174); assay: Counterscreen for inhibitors of phospholipase C isozymes (PLC-B3): Fluorescence-based biochemical high throughput dose response assay to identify inhibitors of phospholipase C isozymes (PLC-gamma1).
[8] = Shn3 3'UTR reporter inhibitors, dose response, cell-based, Clone20 osteoblasts, firefly luciferase, cherry-picked (AID 624132); assay type: functional;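 further: firefly luciferase luminescence from reporter carrying the Shn3 3'UTR in osteoblasts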
[9] = HepG2 cell cytotoxicity, dose response, cytotoxicity control, plate reader, cherry-pick, antagonist series (AID 743416); assay type: functional, cell-based
HEK293 [10] = assay: cells; assay type: functional, cell-based; conditions: Homo sapiens; remark: listed apart in the source
[11] = HEK293 cell cytotoxicity, dose response, cytotoxicity control, plate reader, cherry-picked samples (AID 743446); assay type: functional, cell-based
HEK293 [12] = assay: cells; assay type: functional, cell-based; conditions: Homo sapiens; remark: listed apart in the source
[13] = HepG2 cell cytotoxicity, dose response, cytotoxicity control for Shn3 inhibitor project, CellTiter-Glo, cherry-picked (AID 624134); assay type: functional, cell-based
[14] = target: Nucleotide-binding oligomerization domain-containing protein 2 (Homo sapiens, UniProt Q9HC29); assay: NOD2 signaling inhibitors, cell-based, luminescence, uHTS, HEK293 (AID 1566); assay type: functional
[15] = A549 cell cytotoxicity, dose response, cytotoxicity control, plate reader, cherry-pick, antagonist series (AID 743412); assay type: functional, cell-based
[16] = MC4R antagonists, dose response, counter-screen for LGR2 antagonist project, cell-based, plate reader, cherry pick (AID 743444); assay type: functional;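 further: transfected HEK 293 cells stimulated with alpha-MSH peptide; potency of inhibitors of the alpha-MSH evoked signal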
[17] = target: 1-phosphatidylinositol 4,5-bisphosphate phosphodiesterase beta-3 (Homo sapiens, UniProt Q01970); assay: Fluorescence-based biochemical high throughput dose response assay to identify inhibitors of phospholipase C isozymes (PLC-B3).
[18] = inhibitors of intracellular T. cruzi replication, confirmation, NIH3T3 host cells, beta-gal luminescence (AID 2044); assay type: functional, cell-based;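 further: intracellular parasites grown in NIH/3T3 mouse fibroblasts as host cells; luminescent beta-galactosidase reporter signal from transgenic T. cruzi replicating inside host cells; inhibitors lower the luminescence signal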
[19] = ADAM10 protease inhibitors, dose response, selectivity assay for ADAM17 exosite inhibitor project, biochemical, FRET peptide substrate, recombinant human ADAM10 (AID 743259);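 further: ADAM10 enzyme cleaving a FRET peptide substrate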
[20] = target: T1, Disintegrin and metalloproteinase domain-containing protein 17 (Homo sapiens, UniProt P78536); assay: exosite inhibitors of ADAM17, dose response, biochemical (AID 743260)
[21] = cytotoxicity toward NIH3T3 fibroblasts, dose response, counter-screen, cell-based, ATP luminescence, mouse fibroblasts (AID 2010); assay type: functional;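 further: cells exposed to compound for about 90 hours before reading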
[22] = A Cell-Based Confirmatory Screen for Compounds that Inhibit VEEV, TC-83 (3).; assay type: functional
[23] = target: NAD-dependent protein deacylase sirtuin-5, mitochondrial (Homo sapiens, UniProt Q9NXA8); assay: SIRT5 desuccinylase inhibitors, dose response, biochemical, fluorescence imaging, cherry-pick, set 5 (AID 720591);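 further: desuccinylation of succinyl peptide AMC substrate read as fluorescence after trypsin release; potency of inhibitors that lower fluorescence and may act on trypsin instead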
Streptococcus = assay: Group A Streptococcus viability loss, dose response, counter-screen for streptokinase expression inhibitor project, luminescence, BacTiterGlo (AID 1915); assay type: functional, organism-based;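 further: potency for reduction of bacterial viability or growth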
[24] = test system: Streptococcus sp. 'group A'; assay: growth inhibition of control SK(-) GAS strain, dose response, counter-screen for streptokinase expression inhibitor project, luminescence, kanamycin, BacTiterGlo, confirmation (AID 1900); assay type: functional, organism-based
[25] = target: T1, Disintegrin and metalloproteinase domain-containing protein 17; assay: ADAM17 protease inhibitors, dose response, counter-screen for ADAM10 exosite inhibitor project, biochemical, quenched FRET substrate (AID 743253)
[26] = Luminescence Cell-Based Dose Retest to Confirm Inhibitors of Cancer Stem Cells. [Related pubchem assays (depositor defined):AID2717, AID2721]; assay type: functional; conditions: Homo sapiens
Streptokinase A = target: T2, Streptokinase A (Streptococcus pyogenes serotype M1, UniProt P10520); assay: S. pyogenes streptokinase expression inhibitors, potency, dose response, plasminogen activation absorbance, OD405 (AID 1914); assay type: functional, Streptococcus pyogenes M1 GAS;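 further: secreted streptokinase activity via plasminogen activation per viability signal from cell pellet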
T2 sequence (P10520 whole entry): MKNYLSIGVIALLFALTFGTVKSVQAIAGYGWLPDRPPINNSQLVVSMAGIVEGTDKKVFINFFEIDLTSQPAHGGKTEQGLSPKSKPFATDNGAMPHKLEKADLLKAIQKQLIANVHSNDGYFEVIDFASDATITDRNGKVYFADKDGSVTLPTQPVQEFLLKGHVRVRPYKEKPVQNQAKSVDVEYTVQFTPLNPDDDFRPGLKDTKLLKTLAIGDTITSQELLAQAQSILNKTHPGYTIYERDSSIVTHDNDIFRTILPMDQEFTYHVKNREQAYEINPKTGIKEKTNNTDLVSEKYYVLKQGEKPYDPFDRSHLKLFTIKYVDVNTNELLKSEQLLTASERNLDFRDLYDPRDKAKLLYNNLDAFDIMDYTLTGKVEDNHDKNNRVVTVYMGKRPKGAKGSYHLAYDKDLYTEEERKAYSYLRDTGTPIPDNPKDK

[27] = target: Nuclear receptor subfamily 0 group B member 1 (Homo sapiens, UniProt P51843); assay type: functional, cell-based;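 further: HEK293T cells transfected with SF-1 and DAX-1 plus StAR promoter luciferase reporter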
cells = assay type: functional, cell-based
[28] = target: T3, Scavenger receptor class B member 1 (Mus musculus, UniProt Q61009); assay: inhibitors of SR-BI dependent HDL uptake, dose response, ldlA[mSR-BI] CHO cells, fluorescence plate reader, dry powder, set 9 (AID 623880); assay type: functional, cell-based
[29] = target: T3, Scavenger receptor class B member 1; assay: inhibitors of SR-BI-mediated HDL uptake, dose response, cell-based, ldlA[mSR-BI] CHO, DiI fluorescence, dry powder, set 10 (AID 624029); assay type: functional
[30] = HEK293 Cytotoxicity Assay Measured in Cell-Based System Using Plate Reader - 7071-01_Inhibitor_Dose_CherryPick_Activity_Set2.; assay type: functional
HEK293 [31] = assay: HEK293T cell cytotoxicity, dose response, cytotoxicity control, ATP luminescence, cherry-pick samples (AID 687005); assay type: functional, cell-based; conditions: Homo sapiens;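 further: cells exposed to compound for 48 hours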
Cryptococcus neoformans = assay: PubChem AID 686997; assay type: functional, organism-based
HeLa = assay: HeLa cell cytotoxicity, dose response, cytotoxicity control, ATP luminescence, cherry-pick samples (AID 687004); assay type: functional, cell-based; conditions: Homo sapiens

T1 sequence (P78536 whole entry, the tested form may be a part): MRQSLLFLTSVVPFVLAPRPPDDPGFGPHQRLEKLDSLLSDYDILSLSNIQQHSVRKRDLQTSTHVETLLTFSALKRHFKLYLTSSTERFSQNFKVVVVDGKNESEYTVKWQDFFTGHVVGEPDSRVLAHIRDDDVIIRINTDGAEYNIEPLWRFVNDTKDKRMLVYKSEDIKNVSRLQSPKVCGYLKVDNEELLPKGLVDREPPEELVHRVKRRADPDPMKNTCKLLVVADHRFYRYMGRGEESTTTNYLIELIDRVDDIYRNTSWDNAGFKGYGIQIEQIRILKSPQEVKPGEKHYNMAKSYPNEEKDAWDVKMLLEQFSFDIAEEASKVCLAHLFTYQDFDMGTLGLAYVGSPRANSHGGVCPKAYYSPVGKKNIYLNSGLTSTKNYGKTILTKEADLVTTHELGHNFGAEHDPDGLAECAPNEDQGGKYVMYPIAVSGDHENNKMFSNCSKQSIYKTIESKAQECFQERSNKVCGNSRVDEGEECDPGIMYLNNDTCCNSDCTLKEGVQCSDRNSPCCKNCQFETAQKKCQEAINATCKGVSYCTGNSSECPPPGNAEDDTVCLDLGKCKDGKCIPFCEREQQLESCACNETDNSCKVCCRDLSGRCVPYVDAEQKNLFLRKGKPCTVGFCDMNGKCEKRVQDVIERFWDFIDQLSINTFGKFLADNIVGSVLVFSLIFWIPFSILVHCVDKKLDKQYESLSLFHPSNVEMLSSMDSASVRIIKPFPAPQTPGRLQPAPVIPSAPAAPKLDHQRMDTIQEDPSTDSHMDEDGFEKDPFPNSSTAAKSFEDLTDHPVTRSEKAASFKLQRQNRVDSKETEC
T3 sequence (Q61009 whole entry): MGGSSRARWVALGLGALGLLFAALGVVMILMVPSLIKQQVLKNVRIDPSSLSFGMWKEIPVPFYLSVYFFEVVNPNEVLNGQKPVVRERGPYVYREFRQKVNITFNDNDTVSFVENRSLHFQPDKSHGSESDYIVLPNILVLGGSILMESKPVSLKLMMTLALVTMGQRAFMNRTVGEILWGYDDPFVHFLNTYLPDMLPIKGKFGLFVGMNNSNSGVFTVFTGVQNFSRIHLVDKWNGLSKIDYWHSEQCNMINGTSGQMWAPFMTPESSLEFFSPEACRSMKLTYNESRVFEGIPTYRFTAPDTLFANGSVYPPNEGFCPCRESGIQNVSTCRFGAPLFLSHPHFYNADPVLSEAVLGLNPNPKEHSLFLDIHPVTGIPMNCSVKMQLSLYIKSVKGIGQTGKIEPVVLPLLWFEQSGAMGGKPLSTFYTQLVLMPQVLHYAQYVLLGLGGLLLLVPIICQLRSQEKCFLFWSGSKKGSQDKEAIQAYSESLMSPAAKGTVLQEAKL
Sequence of Nucleotide-binding oligomerization domain-containing protein 2 (Q9HC29 whole entry, the tested form may be a part): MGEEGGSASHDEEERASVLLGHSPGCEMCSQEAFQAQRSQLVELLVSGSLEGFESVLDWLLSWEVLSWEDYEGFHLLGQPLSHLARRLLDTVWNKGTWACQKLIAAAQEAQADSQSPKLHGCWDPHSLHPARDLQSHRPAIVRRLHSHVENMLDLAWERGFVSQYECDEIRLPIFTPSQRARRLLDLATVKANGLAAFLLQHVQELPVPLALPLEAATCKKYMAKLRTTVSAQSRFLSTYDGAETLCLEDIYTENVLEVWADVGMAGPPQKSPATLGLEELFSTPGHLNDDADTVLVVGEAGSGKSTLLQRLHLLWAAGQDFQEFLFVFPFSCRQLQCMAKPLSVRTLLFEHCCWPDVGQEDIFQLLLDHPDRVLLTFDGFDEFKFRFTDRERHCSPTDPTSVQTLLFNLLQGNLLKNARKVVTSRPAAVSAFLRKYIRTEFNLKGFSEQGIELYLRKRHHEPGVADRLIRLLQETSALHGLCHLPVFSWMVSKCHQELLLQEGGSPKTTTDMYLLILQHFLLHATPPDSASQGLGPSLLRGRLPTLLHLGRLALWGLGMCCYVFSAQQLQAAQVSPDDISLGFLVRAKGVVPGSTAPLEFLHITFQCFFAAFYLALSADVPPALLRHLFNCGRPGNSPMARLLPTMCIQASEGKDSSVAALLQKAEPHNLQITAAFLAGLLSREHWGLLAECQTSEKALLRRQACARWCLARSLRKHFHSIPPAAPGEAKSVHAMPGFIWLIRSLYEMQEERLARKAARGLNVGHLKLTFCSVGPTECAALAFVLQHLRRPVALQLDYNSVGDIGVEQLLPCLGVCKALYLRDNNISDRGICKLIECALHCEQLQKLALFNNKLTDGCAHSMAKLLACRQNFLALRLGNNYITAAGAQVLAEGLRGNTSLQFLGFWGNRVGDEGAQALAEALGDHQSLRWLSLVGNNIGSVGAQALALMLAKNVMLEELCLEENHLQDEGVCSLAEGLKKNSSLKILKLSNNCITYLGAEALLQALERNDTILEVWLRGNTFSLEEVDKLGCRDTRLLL
Sequence of Nuclear receptor subfamily 0 group B member 1 (P51843 whole entry): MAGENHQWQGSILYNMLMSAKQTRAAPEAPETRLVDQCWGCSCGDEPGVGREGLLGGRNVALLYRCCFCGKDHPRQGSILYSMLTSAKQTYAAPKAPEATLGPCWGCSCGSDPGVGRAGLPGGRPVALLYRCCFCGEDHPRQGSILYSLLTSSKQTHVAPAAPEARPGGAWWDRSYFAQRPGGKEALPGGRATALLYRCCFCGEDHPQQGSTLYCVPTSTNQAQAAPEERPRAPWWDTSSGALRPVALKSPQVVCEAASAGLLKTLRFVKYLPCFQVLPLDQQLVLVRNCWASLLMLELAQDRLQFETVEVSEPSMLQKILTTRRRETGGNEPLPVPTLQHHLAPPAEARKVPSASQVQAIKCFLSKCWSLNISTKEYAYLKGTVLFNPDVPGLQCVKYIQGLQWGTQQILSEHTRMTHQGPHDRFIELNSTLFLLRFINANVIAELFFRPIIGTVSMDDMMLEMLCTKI
Sequence of NAD-dependent protein deacylase sirtuin-5, mitochondrial (Q9NXA8 whole entry): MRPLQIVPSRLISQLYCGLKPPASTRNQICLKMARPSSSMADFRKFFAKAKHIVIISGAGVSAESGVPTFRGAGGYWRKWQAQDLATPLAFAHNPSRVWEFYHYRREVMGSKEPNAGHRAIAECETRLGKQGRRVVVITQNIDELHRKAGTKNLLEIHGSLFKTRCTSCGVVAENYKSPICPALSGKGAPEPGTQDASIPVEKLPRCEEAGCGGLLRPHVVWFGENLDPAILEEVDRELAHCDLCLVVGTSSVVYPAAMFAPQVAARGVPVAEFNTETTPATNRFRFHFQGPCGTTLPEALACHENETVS
Sequence of Neurotensin receptor type 1 (P30989 whole entry): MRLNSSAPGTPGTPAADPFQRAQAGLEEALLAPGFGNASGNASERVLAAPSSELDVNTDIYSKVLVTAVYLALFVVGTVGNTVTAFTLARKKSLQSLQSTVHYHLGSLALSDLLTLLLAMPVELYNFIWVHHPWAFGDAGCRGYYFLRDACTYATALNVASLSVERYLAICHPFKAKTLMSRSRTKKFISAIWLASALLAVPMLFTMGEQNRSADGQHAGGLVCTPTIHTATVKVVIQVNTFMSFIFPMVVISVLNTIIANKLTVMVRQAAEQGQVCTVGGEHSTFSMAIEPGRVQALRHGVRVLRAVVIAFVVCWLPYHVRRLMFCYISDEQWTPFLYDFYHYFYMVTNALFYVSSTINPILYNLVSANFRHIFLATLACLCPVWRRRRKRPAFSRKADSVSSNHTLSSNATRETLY
Sequence of 1-phosphatidylinositol 4,5-bisphosphate phosphodiesterase gamma-1 (P19174 whole entry): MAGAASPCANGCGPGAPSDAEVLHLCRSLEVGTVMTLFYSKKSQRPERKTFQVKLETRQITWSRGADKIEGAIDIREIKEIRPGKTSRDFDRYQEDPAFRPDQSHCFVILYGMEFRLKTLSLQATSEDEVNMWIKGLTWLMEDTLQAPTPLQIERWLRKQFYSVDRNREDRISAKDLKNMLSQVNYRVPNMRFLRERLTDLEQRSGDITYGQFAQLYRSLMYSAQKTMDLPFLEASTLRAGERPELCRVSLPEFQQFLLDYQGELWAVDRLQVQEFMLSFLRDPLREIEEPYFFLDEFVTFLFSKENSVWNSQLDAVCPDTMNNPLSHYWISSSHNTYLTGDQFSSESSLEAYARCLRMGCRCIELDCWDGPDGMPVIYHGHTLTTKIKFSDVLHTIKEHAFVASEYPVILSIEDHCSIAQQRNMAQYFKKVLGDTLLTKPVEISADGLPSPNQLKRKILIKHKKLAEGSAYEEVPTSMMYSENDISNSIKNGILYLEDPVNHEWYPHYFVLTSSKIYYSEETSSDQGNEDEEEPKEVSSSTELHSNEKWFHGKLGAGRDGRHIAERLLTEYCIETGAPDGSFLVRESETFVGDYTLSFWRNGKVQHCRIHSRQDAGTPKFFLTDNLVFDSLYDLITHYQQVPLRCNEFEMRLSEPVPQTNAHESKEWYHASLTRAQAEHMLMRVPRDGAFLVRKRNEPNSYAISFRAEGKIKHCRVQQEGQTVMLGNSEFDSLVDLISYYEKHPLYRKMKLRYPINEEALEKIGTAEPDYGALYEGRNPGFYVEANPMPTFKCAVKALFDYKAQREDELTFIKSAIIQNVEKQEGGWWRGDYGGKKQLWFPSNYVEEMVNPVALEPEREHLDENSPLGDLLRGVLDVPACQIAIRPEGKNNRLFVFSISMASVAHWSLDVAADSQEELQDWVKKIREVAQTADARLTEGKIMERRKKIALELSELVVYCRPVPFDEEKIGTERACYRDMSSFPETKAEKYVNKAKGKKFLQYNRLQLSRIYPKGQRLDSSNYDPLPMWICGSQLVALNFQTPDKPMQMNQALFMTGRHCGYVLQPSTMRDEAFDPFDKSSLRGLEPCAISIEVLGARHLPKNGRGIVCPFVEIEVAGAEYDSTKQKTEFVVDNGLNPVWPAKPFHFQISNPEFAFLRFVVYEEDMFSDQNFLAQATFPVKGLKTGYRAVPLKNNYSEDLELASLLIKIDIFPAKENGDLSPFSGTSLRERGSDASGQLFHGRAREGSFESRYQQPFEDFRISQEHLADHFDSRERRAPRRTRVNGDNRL

In the case of `CN(C(=O)COc1ccccc1C(=O)NCCOc1ccccc1)c1ccccc1`, the EC50 (HEK293 [1]) is reported as 5.76 µM (active), the AC50 [2] is reported as 12.8 µM (active) and the IC50 (HEK293 [3]) is reported as 11.2 µM (active). For the same compound, the AC50 [4] was 4.23 µM (active), the IC50 (HEK293 [5]) was 4.32 µM (active) and the EC50 [6] was 17.9 µM (active). For the same compound, the IC50 [7] was > 122 µM (inactive), the AC50 [8] was 1.57 µM (active) and the AC50 [9] was 32.7 µM (active). The IC50 (HEK293 [10]) was 3.42 µM (active), the AC50 [11] was 15.9 µM (active) and the IC50 (HEK293 [12]) was 3.82 µM (active). The AC50 [13] was 51.9 µM (active), the EC50 [14] was 7.78 µM (active) and the AC50 [15] was 20.8 µM (active). For the same compound, the AC50 [16] was 11.2 µM (active) and the IC50 [17] was > 122 µM (inactive).
With `COC(=O)C1=C(c2cc3ccccc3s2)C[C@@H]2CC[C@H]1N2C(=O)NCc1ccc(C(F)(F)F)cc1` the EC50 [18] was 3.12 µM (active), the IC50 [19] was > 7.72 µM (active) and the IC50 [20] was > 69.5 µM (inactive). The EC50 [21] was 8.21 µM (active).
With `O=c1c2cc([N+](=O)[O-])ccc2nc(CN2CCOCC2)n1-c1ccccc1F` the IC50 [22] was 9.6 µM (active).
With `CCn1ccnc1CN(C)C(=O)CC1C(=O)NCCN1Cc1c(F)cccc1Cl` (stereo unspecified) the AC50 [23] was > 30 µM (inactive).
For `Oc1ccc(Cl)cc1-c1cc(-c2cccc(Br)c2)[nH]n1`, the EC50 (Streptococcus) was 6.65 µM (active), the EC50 [24] was 5.6 µM (active) and the IC50 [25] was > 69.5 µM (inactive). The AC50 [26] was 5.22 µM (active) and the EC50 (Streptokinase A) was > 150 µM (not active).
In the case of `CC(=O)Nc1ccc(-c2ccnc3c2CC(C(=O)NCc2ccco2)O3)cc1` (stereo unspecified), the IC50 [27] is reported as > 67.5 µM (inactive) and the IC50 (cells) is reported as > 67.5 µM (inactive).
In the case of `C[C@@H]1CN([C@H](C)CO)C(=O)c2cc(NC(=O)C3CCOCC3)ccc2O[C@H]1CN(C)S(=O)(=O)c1ccc(Cl)cc1`, the AC50 [28] is reported as 34.2 µM (active) and the AC50 [29] is reported as 34.8 µM (active).
In the case of `COC(=O)C1=C(C)N(Cc2ccc(Cl)cc2)C(=S)NC1c1cccc(OC)c1` (stereo unspecified), the AC50 [30] is reported as 11.4 µM (active), the AC50 (HEK293 [31]) is reported as 11.4 µM (active) and the AC50 (Cryptococcus neoformans) is reported as 57.5 µM (active). For the same compound, the AC50 (HeLa) was > 52 µM (inactive).
